Laboratory results reported in patent US11331299B2, “Medicinal use of serrulatane diterpenes” (The University of Sydney, priority 2016, dated 2022).
Like-named read-outs stand apart in the source and are kept apart here.

System: 280 human cancer cell lines
Assay: OncoPanel cell proliferation assay (10-day)
Format: cell-based
Settings: Homo sapiens; for EC50: read-out: Cell Count EC50; for GI50: read-out: Cell Count GI50; for IC50: read-out: Cell Count IC50
[1] = Caov-3, CaOV3, Female GU - Ovary
[2] = ChaGo-K-1, ChaGoK1, Lung - NSCLC
[3] = D341 Med, CNS - Medulloblastoma
[4] = Detroit 562, Detroit 562, Head and Neck
[5] = DoTc2-4510, DoTc2 4510, Lymphoma
[6] = G292, G-292, clone A141B1, Soft Tissue - Osteosarcoma
[7] = HEL 92.1.7, HEL-92-1-7, Leukemia
[8] = HOS, Soft Tissue - Osteosarcoma
[9] = HT-1080, HT-1080, Soft Tissue - Sarcoma
[10] = HUH-6-clone5, HUH-6 Clone 5, Liver
[11] = Hs 821.T, Soft Tissue - Sarcoma
[12] = Hs 888.Sk, Soft Tissue - Osteosarcoma

CC(C)=CCC[C@@H]1C(O)Oc2c(C)cc(O)c3c2[C@H]1CC[C@H]3C (stereo partly shown) [Compound 2, 5,18-epoxyserrulat-14-en-8,18-diol]
EC50 [1]: 10.2 µM
GI50 [1]: 9.61 µM
IC50 [1]: 10.2 µM
EC50 (Capan-2, Capan-2, Pancreas): 8.64 µM
GI50 (Capan-2, Capan-2, Pancreas): 8.48 µM
IC50 (Capan-2, Capan-2, Pancreas): 8.64 µM
EC50 [2]: 8.32 µM
GI50 [2]: 8.26 µM
IC50 [2]: 8.32 µM
EC50 [3]: 19.2 µM
GI50 [3]: 18.7 µM
IC50 [3]: 19.2 µM
EC50 (DB, Lymphoma): 3.23 µM
GI50 (DB, Lymphoma): 3.24 µM
IC50 (DB, Lymphoma): 3.25 µM
EC50 (DBTRG-05MG, CNS - Glioma): 12.2 µM
GI50 (DBTRG-05MG, CNS - Glioma): 12.8 µM
IC50 (DBTRG-05MG, CNS - Glioma): 13 µM
EC50 (DK-MG, CNS - Glioma): 1.64 µM
GI50 (DK-MG, CNS - Glioma): > 30 µM
IC50 (DK-MG, CNS - Glioma): > 30 µM
EC50 (DLD-1, DLD-1, Colon): 10.7 µM
GI50 (DLD-1, DLD-1, Colon): 11.2 µM
IC50 (DLD-1, DLD-1, Colon): 11.2 µM
EC50 (DMS-53, DMS53, Lung - SCLC): 5.91 µM
GI50 (DMS-53, DMS53, Lung - SCLC): 5.75 µM
IC50 (DMS-53, DMS53, Lung - SCLC): 5.95 µM
EC50 (DMS-114, DMS114, Lung - SCLC): 11.5 µM
GI50 (DMS-114, DMS114, Lung - SCLC): 13.1 µM
IC50 (DMS-114, DMS114, Lung - SCLC): 13.8 µM
EC50 (DOHH-2, DOHH-2, Lymphoma): 3.24 µM
GI50 (DOHH-2, DOHH-2, Lymphoma): 3.24 µM
IC50 (DOHH-2, DOHH-2, Lymphoma): 3.24 µM
EC50 (DU-145, DU145, Prostate): 21 µM
GI50 (DU-145, DU145, Prostate): 20.7 µM
IC50 (DU-145, DU145, Prostate): 21 µM
EC50 (Daoy, CNS - Medulloblastoma): 8.64 µM
GI50 (Daoy, CNS - Medulloblastoma): 8.64 µM
IC50 (Daoy, CNS - Medulloblastoma): 8.65 µM
EC50 (Daudi, Lymphoma): 3.93 µM
GI50 (Daudi, Lymphoma): 3.92 µM
IC50 (Daudi, Lymphoma): 3.93 µM
EC50 [4]: 14.5 µM
GI50 [4]: 14.4 µM
IC50 [4]: 14.5 µM
EC50 [5]: 6.07 µM
GI50 [5]: 5.84 µM
IC50 [5]: 6.07 µM
EC50 (EB2, Lymphoma): 23.3 µM
GI50 (EB2, Lymphoma): 23 µM
IC50 (EB2, Lymphoma): 23.3 µM
EC50 (EB-3, Lymphoma): 9.72 µM
GI50 (EB-3, Lymphoma): 9.71 µM
IC50 (EB-3, Lymphoma): 9.72 µM
EC50 (EFM-19, EFM-19, Breast): 11.2 µM
GI50 (EFM-19, EFM-19, Breast): 10.6 µM
IC50 (EFM-19, EFM-19, Breast): 11.2 µM
EC50 (EM-2, Leukemia): 10.8 µM
GI50 (EM-2, Leukemia): 10.8 µM
IC50 (EM-2, Leukemia): 10.8 µM
EC50 (FaDu, Head and Neck): 8.66 µM
GI50 (FaDu, Head and Neck): 8.66 µM
IC50 (FaDu, Head and Neck): 8.66 µM
EC50 [6]: 8.8 µM
GI50 [6]: 8.57 µM
IC50 [6]: 8.8 µM
EC50 (G-361, G-361, Skin (Melanoma)): 11.7 µM
GI50 (G-361, G-361, Skin (Melanoma)): 11.8 µM
IC50 (G-361, G-361, Skin (Melanoma)): 11.8 µM
EC50 (G-401, G-401, Kidney): 26 µM
GI50 (G-401, G-401, Kidney): 26.2 µM
IC50 (G-401, G-401, Kidney): 26.2 µM
EC50 (GA-10, GA-10, Lymphoma): 3.72 µM
GI50 (GA-10, GA-10, Lymphoma): 3.73 µM
IC50 (GA-10, GA-10, Lymphoma): 3.73 µM
EC50 (H4, CNS - Glioma): 3.06 µM
GI50 (H4, CNS - Glioma): > 30 µM
IC50 (H4, CNS - Glioma): > 30 µM
EC50 (HCT-15, HCT-15, Colon): 8.64 µM
GI50 (HCT-15, HCT-15, Colon): 9.48 µM
IC50 (HCT-15, HCT-15, Colon): 9.49 µM
EC50 (HCT-116, HCT-116, Colon): 6.68 µM
GI50 (HCT-116, HCT-116, Colon): 6.67 µM
IC50 (HCT-116, HCT-116, Colon): 6.68 µM
EC50 (HEC-1-A, Female GU - Uterus): 12.1 µM
GI50 (HEC-1-A, Female GU - Uterus): 12 µM
IC50 (HEC-1-A, Female GU - Uterus): 12.1 µM
EC50 [7]: 13.4 µM
GI50 [7]: 13.4 µM
IC50 [7]: 13.4 µM
EC50 (HLE, Liver): 10 µM
GI50 (HLE, Liver): 16 µM
IC50 (HLE, Liver): 16.4 µM
EC50 (HLF, Liver): 13.7 µM
GI50 (HLF, Liver): 15.6 µM
IC50 (HLF, Liver): 15.7 µM
EC50 (HMCB, Skin (Melanoma)): 6.68 µM
GI50 (HMCB, Skin (Melanoma)): 6.57 µM
IC50 (HMCB, Skin (Melanoma)): 6.68 µM
EC50 [8]: 4.82 µM
GI50 [8]: 4.81 µM
IC50 [8]: 4.82 µM
EC50 (HPAF-II, Pancreas): 9.46 µM
GI50 (HPAF-II, Pancreas): 9.6 µM
IC50 (HPAF-II, Pancreas): 9.62 µM
EC50 (HT1197, HT-1197, Bladder): 10.7 µM
GI50 (HT1197, HT-1197, Bladder): 10.3 µM
IC50 (HT1197, HT-1197, Bladder): 10.7 µM
EC50 (HT, Lymphoma): 6.51 µM
GI50 (HT, Lymphoma): 6.43 µM
IC50 (HT, Lymphoma): 6.51 µM
EC50 (HT-3, Female GU - Cervix): 17.6 µM
GI50 (HT-3, Female GU - Cervix): 18.6 µM
IC50 (HT-3, Female GU - Cervix): 19.3 µM
EC50 (HT-29, HT-29, Colon): 19.5 µM
GI50 (HT-29, HT-29, Colon): 19.4 µM
IC50 (HT-29, HT-29, Colon): 19.5 µM
EC50 [9]: 3.31 µM
GI50 [9]: 3.3 µM
IC50 [9]: 3.31 µM
EC50 (HT-1376, HT1376, Bladder): 4.71 µM
GI50 (HT-1376, HT1376, Bladder): 4.47 µM
IC50 (HT-1376, HT1376, Bladder): 4.71 µM
EC50 [10]: 15.5 µM
GI50 [10]: 15.3 µM
IC50 [10]: 15.5 µM
EC50 (HeLa, Female GU - Cervix): 16.6 µM
GI50 (HeLa, Female GU - Cervix): 16.5 µM
IC50 (HeLa, Female GU - Cervix): 16.6 µM
EC50 (HepG2, HepG2, Liver): 6.74 µM
GI50 (HepG2, HepG2, Liver): 6.86 µM
IC50 (HepG2, HepG2, Liver): 6.95 µM
EC50 (Hs 229.T, Lung - NSCLC): 29.3 µM
GI50 (Hs 229.T, Lung - NSCLC): 28.6 µM
IC50 (Hs 229.T, Lung - NSCLC): 29.8 µM
EC50 (Hs 294T, Skin (Melanoma)): 7.01 µM
GI50 (Hs 294T, Skin (Melanoma)): 6.72 µM
IC50 (Hs 294T, Skin (Melanoma)): 7.01 µM
EC50 (Hs 445, Hs 445, Lymphoma): 4.34 µM
GI50 (Hs 445, Hs 445, Lymphoma): 4.23 µM
IC50 (Hs 445, Hs 445, Lymphoma): 4.34 µM
EC50 (Hs 611.T, Lymphoma): 10.7 µM
GI50 (Hs 611.T, Lymphoma): 10.6 µM
IC50 (Hs 611.T, Lymphoma): 10.7 µM
EC50 (Hs 683, Hs 683, CNS - Glioma): 29.8 µM
GI50 (Hs 683, Hs 683, CNS - Glioma): 28.3 µM
IC50 (Hs 683, Hs 683, CNS - Glioma): 29.8 µM
EC50 (Hs 688(A).T, Skin (Melanoma)): 11.6 µM
GI50 (Hs 688(A).T, Skin (Melanoma)): 12.2 µM
IC50 (Hs 688(A).T, Skin (Melanoma)): 13.2 µM
EC50 (Hs746T, HS 746T, Stomach): > 30 µM
GI50 (Hs746T, HS 746T, Stomach): > 30 µM
IC50 (Hs746T, HS 746T, Stomach): > 30 µM
EC50 (Hs766T, Hs 766T, Pancreas): 28.4 µM
GI50 (Hs766T, Hs 766T, Pancreas): 26.2 µM
IC50 (Hs766T, Hs 766T, Pancreas): 28.4 µM
EC50 [11]: > 30 µM
GI50 [11]: 13.9 µM
IC50 [11]: > 30 µM
EC50 [12]: 28.3 µM
GI50 [12]: 27.9 µM
IC50 [12]: 28.5 µM
EC50 (Hs 934.T, Skin (Melanoma)): > 30 µM
GI50 (Hs 934.T, Skin (Melanoma)): 24.1 µM
IC50 (Hs 934.T, Skin (Melanoma)): > 30 µM
EC50 (Hs 936.T(C1), Skin (Melanoma)): 3.62 µM
GI50 (Hs 936.T(C1), Skin (Melanoma)): 3.74 µM
IC50 (Hs 936.T(C1), Skin (Melanoma)): 3.76 µM
EC50 (Hs-578T, Hs 578T, Breast): 28.7 µM
GI50 (Hs-578T, Hs 578T, Breast): 28.2 µM
IC50 (Hs-578T, Hs 578T, Breast): 28.7 µM
EC50 (HuCCT-1, HuCCT1, Liver): 22.6 µM
GI50 (HuCCT-1, HuCCT1, Liver): 22.6 µM
IC50 (HuCCT-1, HuCCT1, Liver): 22.6 µM
EC50 (HuP-T4, HuP-T4, Pancreas): > 30 µM
GI50 (HuP-T4, HuP-T4, Pancreas): > 30 µM
IC50 (HuP-T4, HuP-T4, Pancreas): > 30 µM
EC50 (J82, Bladder): 12.9 µM
GI50 (J82, Bladder): 12.7 µM
IC50 (J82, Bladder): 12.9 µM
EC50 (JAR, Placenta): > 30 µM
GI50 (JAR, Placenta): > 30 µM
IC50 (JAR, Placenta): > 30 µM
EC50 (JEG-3, JEG-3, Placenta): > 30 µM
GI50 (JEG-3, JEG-3, Placenta): > 30 µM
IC50 (JEG-3, JEG-3, Placenta): > 30 µM
EC50 (JIYOYE, Lymphoma): 17.8 µM
GI50 (JIYOYE, Lymphoma): 17.7 µM
IC50 (JIYOYE, Lymphoma): 17.8 µM
EC50 (JeKo-1, JeKo-1, Lymphoma): 4.48 µM
GI50 (JeKo-1, JeKo-1, Lymphoma): 4.47 µM
IC50 (JeKo-1, JeKo-1, Lymphoma): 4.48 µM
EC50 (Jurkat, Leukemia): 2.66 µM
GI50 (Jurkat, Leukemia): 2.65 µM
IC50 (Jurkat, Leukemia): 2.66 µM
EC50 (K562, K562, Leukemia): 10.2 µM
GI50 (K562, K562, Leukemia): 10.1 µM
IC50 (K562, K562, Leukemia): 10.2 µM
EC50 (KATO III, Stomach): 8.98 µM
GI50 (KATO III, Stomach): 16.6 µM
IC50 (KATO III, Stomach): 16.8 µM
EC50 (KHOS-240S, Soft Tissue - Osteosarcoma): 4.59 µM
